Results taken from ChEMBL document CHEMBL1932926, “New substituted C-19-andrographolide analogues with potent cytotoxic activities” (2012).

Assays:
Type in all cases: functional
Conditions in all cases: read-out: ED50 (the source's name)
MCF7 = assay: Cytotoxicity against human MCF7 cells by SRB assay
P388 = assay: Cytotoxicity against mouse P388 cells by SRB assay
Lu1 = assay: Cytotoxicity against human Lu1 cells by SRB assay
[1] = Cytotoxicity against rat ASK cells by SRB assay
KB = assay: Cytotoxicity against human KB cells by SRB assay
Col2 = assay: Cytotoxicity against human Col2 cells by SRB assay

SMILES | EC50 (MCF7) [µM] | EC50 (P388) [µM] | EC50 (Lu1) [µM] | EC50 [1] [µM] | EC50 (KB) [µM] | EC50 (Col2) [µM]
C=C1CC[C@@H]2[C@](C)(CO[Si](C(C)C)(C(C)C)C(C)C)[C@H](OC(C)=O)CC[C@@]2(C)[C@@H]1C/C=C1/C(=O)OC[C@H]1OC(C)=O | 14 | 1.41 | 18.8 | 7.56 | 7.39 | 13.6
C=C1CC[C@@H]2[C@](C)(COC(C)=O)[C@H](O)CC[C@@]2(C)[C@@H]1C/C=C1/C(=O)OC[C@H]1O | 18.2 | 2.04 | 14 | 16.7 | 15.3 | 12.9
C=C1CC[C@@H]2[C@](C)(CO[Si](c3ccccc3)(c3ccccc3)C(C)(C)C)[C@H](O)CC[C@@]2(C)[C@@H]1C/C=C1/C(=O)OC[C@H]1O | 8.15 | 0.68 | 11.5 | 5.54 | 11.1 | 9.65
C=C1CC[C@@H]2[C@](C)(CO[Si](C(C)C)(C(C)C)C(C)C)[C@H](O)CC[C@@]2(C)[C@@H]1C/C=C1/C(=O)OC[C@H]1O | 2.88 | 0.88 | 3.01 | 2.85 | 2.73 | 2.73
C=C1CC[C@@H]2[C@](C)(CO)[C@H](OC(C)=O)CC[C@@]2(C)[C@@H]1C/C=C1/C(=O)OC[C@H]1O | 26.4 | 4.78 | 30.6 | 58.1 | 35.6 | 27.2
C=C1CC[C@@H]2[C@](C)(COC(C)=O)[C@H](OC(C)=O)CC[C@@]2(C)[C@@H]1C/C=C1/C(=O)OC[C@H]1OC(C)=O | 10 | 1.4 | 12.4 | 11.4 | 11.6 | 10.8
C=C1CC[C@@H]2[C@](C)(CO)[C@H](OC(C)=O)CC[C@@]2(C)[C@@H]1C/C=C1/C(=O)OC[C@H]1OC(C)=O | 11 | 0.69 | 8.75 | 11.5 | 11.7 | 10.2
C=C1CC[C@@H]2[C@](C)(COC(C)=O)[C@H](OC(C)=O)CC[C@@]2(C)[C@@H]1C/C=C1/C(=O)OC[C@H]1O | 19.7 | 2.65 | 34.7 | 22.4 | 35.2 | 15.3
C=C1CC[C@@H]2[C@](C)(CO[Si](c3ccccc3)(c3ccccc3)C(C)(C)C)[C@H](OC(C)=O)CC[C@@]2(C)[C@@H]1C/C=C1/C(=O)OC[C@H]1OC(C)=O | 45.7 | 1.67 | 52.9 | 32.8 | 29 | 12.3
C=C1CC[C@@H]2[C@](C)(CO[Si](C)(C)C(C)(C)C)[C@H](O)CC[C@@]2(C)[C@@H]1C/C=C1/C(=O)OC[C@H]1OC(C)=O | 10.4 | 1.03 | 10.4 | 3.41 | 10.7 | 8.94
C=C1CC[C@@H]2[C@](C)(COC(C)=O)[C@H](O)CC[C@@]2(C)[C@@H]1C/C=C1/C(=O)OC[C@H]1OC(C)=O | 18.5 | 1.62 | 19.8 | 16.3 | 26.4 | 15.2
C=C1CC[C@@H]2[C@](C)(CO[Si](C)(C)C(C)(C)C)[C@H](OC(C)=O)CC[C@@]2(C)[C@@H]1C/C=C1/C(=O)OC[C@H]1O | 9.79 | 1.71 | 9.62 | 8.17 | 11.2 | 11.3
C=C1CC[C@@H]2[C@](C)(COC(c3ccccc3)(c3ccccc3)c3ccccc3)[C@H](O)CC[C@@]2(C)[C@@H]1C/C=C1/C(=O)OC[C@H]1O | 2.72 | 0.45 | 0.88 | 2.86 | 2.42 | 2.73
C=C1CC[C@@H]2[C@](C)(CO[Si](C)(C)C(C)(C)C)[C@H](OC(C)=O)CC[C@@]2(C)[C@@H]1C/C=C1/C(=O)OC[C@H]1OC(C)=O | 2.84 | 0.34 | 2.92 | 1.22 | 3.62 | 2.23
C=C1CC[C@@H]2[C@](C)(CO[Si](C)(C)C(C)(C)C)[C@H](O)CC[C@@]2(C)[C@@H]1C/C=C1/C(=O)OC[C@H]1O | 47 | 8.39 | 48.8 | 15.5 | 40.7 | 17.1
C=C1CC[C@@H]2[C@]3(C)COC(C)(C)O[C@@H]3CC[C@@]2(C)[C@@H]1C/C=C1/C(=O)OC[C@H]1O | 42.8 | 3.78 | 53 | 52.2 | 66.5 | 39.8
C=C1CC[C@@H]2[C@](C)(CO[Si](c3ccccc3)(c3ccccc3)C(C)(C)C)[C@H](O)CC[C@@]2(C)[C@@H]1C/C=C1/C(=O)OC[C@H]1OC(C)=O | 9.63 | 0.33 | 11.9 | 12 | 10.5 | 10.7
C=C1CC[C@@H]2[C@](C)(CO[Si](c3ccccc3)(c3ccccc3)C(C)(C)C)[C@H](OC(C)=O)CC[C@@]2(C)[C@@H]1C/C=C1/C(=O)OC[C@H]1O | 7.53 | 0.5 | 10.9 | 10.5 | 9.86 | 3.8
Cc1c2ccncc2c(C)c2c1[nH]c1ccccc12 [ELLIPTECINE] | 2.71 | 2.44 | 1.62 | 3.56 | 2.46 | 2.72
C=C1CC[C@@H]2[C@](C)(CO)[C@H](O)CC[C@@]2(C)[C@@H]1C/C=C1/C(=O)OC[C@H]1O [ANDROGRAPHOLIDE] | 15.4 | 2.25 | 13 | 16.2 | 27.4 | 13.6
C=C1CC[C@@H]2[C@](C)(COC(c3ccccc3)(c3ccccc3)c3ccccc3)[C@H](OC(C)=O)CC[C@@]2(C)[C@@H]1C/C=C1/C(=O)OC[C@H]1OC(C)=O | 22.7 | 1.92 | 8.37 | 15.3 | 9.77 | 22.8
